Laboratory results: patent US8222299B2, “Organosulfur prodrugs for the prevention and treatment of infectious diseases” (Allium Vitalis Incorporated, priority 2003, dated 2012)
Entries after “also recorded” stand apart in the source; their conditions may differ.

What was measured:
[1] = cited from earlier work; for Reaction in Blood Half-life / Reaction in Blood Product (moles): in vitro
[2] = Non-enzymatic reaction of AllylSH with H2O2; type: physicochemical
From the text: Thiols are known to have various antioxidant properties, including the ability to scavenge (H2O2), although the specific ability of allyl mercaptan in this regard may not have been previously investigated.

[3] = compounds from Allium grayi Regel and Allium fistulosum; cited from earlier work
[4] = system: 13 types of bacteria; conditions: cited from earlier work
[5] = pKa and ionization; type: physicochemical; conditions: pH of approximately 7
[6] = molecular target: CYP2D6 (Homo sapiens, UniProt P10635); conditions: cited from earlier work
Chain of CYP2D6 (P10635 whole entry): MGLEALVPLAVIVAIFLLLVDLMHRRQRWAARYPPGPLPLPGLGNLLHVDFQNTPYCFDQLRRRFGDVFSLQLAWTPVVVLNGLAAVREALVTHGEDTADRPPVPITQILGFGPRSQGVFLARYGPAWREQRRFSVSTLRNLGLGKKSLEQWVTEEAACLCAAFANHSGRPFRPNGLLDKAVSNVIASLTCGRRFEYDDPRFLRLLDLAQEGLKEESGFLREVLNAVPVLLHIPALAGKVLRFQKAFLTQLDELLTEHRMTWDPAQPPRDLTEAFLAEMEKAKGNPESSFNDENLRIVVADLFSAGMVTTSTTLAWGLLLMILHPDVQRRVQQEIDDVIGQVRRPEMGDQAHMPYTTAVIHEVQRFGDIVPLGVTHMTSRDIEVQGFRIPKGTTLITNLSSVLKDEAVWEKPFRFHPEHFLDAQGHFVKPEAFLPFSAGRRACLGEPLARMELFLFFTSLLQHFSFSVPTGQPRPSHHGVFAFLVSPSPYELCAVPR

[7] = system: prostaglandin synthase; conditions: 50 uM/L; cited from earlier work
[8] = cited from earlier work
[9] = system: Sendai virus; conditions: post treatment one hour after infection, measured 24 hours post infection; cited from earlier work
[10] = system: neutrophil influx; conditions: intravenous, 150 mg/kg; cited from earlier work
[11] = mice, cited from earlier work; for protection from acetaminophen poisoning, pretreatment: SAMC 100 mg/kg
[12] = system: SARS coronavirus; assay: microbe, parasite or virus in culture; conditions: Severe acute respiratory syndrome coronavirus, read-out: reduction in the viability of infected cells
[13] = chemiluminescense assay; cited from earlier work
[14] = system: cells; conditions: in vitro exposure; cited from earlier work
[15] = system: uninfected cells; conditions: 0.01 mM

Compound: C=CCS[S+]([O-])CC=C (stereo not shown) [Allicin, DiAllylThioSulfinate]
- time for metabolism to allyl-mercaptan ([1]; blood cells exposed to allicin): less than one minute
- Reaction in Blood Half-life [1]: <1 min
- Reaction in Blood Product (moles) [1]: AllylSH (1.6)

Compound: C=CCS [AllylSH, AllylThiol]
- reaction with H2O2 at low concentration ([2]; initial 10 mM H2O2 and 0.85 mM Allyl-SH, FIG. 1): can reduce hydrogen peroxide

Compound: CCCS[S+]([O-])CCC (stereo not shown) [CH3(CH2)2S˜SO(CH2)2CH3]
- nematicidal activity [3]: most effective compound found

Compound: O=C(N[C@H](CO)[C@H](O)c1ccc([N+](=O)[O-])cc1)C(Cl)Cl [Chloramphenicol]
- species inhibited ([4]; 13 types of bacteria): 12/13
- average zone of inhibition [4]: 20 mm

Compound: N[C@@H](CS)C(=O)O [Cys, Cysteine]
- fraction ionized [5]: approximately 3%

Compound: C=CCSSCC=C [DADS, DiAllylDisulfide]
- activity of the enzymes [6]: up to 121 pmol/min/pmol CYP2D6
- conversion of DADS to allicin ([6]; in 30 minutes): approximately 30%
- inhibition of prostaglandin synthase [7]: 69%
- reaction with H2O2 at high concentration ([2]; initial 40 mM H2O2 and 0.85 mM Allyl-SH, FIG. 2): further oxidized to Allicin
- Reaction in Blood Half-life [1]: 60 min
- Reaction in Blood Product (moles) [1]: AllylSH (0.8)
- water solubility in words [8]: poor water solubility

Compound: N[C@@H](CCC(=O)N[C@@H](CS)C(=O)NCC(=O)O)C(=O)O [Glutathione]
- reduction of the level of infection [9]: 95%

Compound: CC(=O)N[C@@H](CS)C(=O)O [NAC, N-acetylcysteine]
- IL-1 induced neutrophil influx into lung lavages [10]: inhibited

Compound: C=CCSC[C@H](N)C(=O)O [S-allylcysteine]
- protection from acetaminophen poisoning, pretreatment [11]: not nearly as effective

Compound: C=CCSSC[C@H](N)C(=O)O [SAMC, S-AllylMercaptoCysteine]
- protection from acetaminophen poisoning, pretreatment [11]: protect mice
- protection from acetaminophen poisoning, post treatment ([11]; single dose 200 mg/kg shortly after exposure): protective
- inhibition at 10 µM [12]: 6%
- antioxidant or pro-oxidant activity [13]: by far the most effective antioxidant
- total glutathione level of cells [14]: significantly increase; also recorded: significant increase
- toxicity to uninfected cells [15]: no toxicity
- Reaction in Blood Product (moles) [1]: AllylSH (0.8)
